US20250151724A1, “Liquid Soil Treatments Containing Choline” (Harrell's, LLC, priority 2023, published 2025)
Where two headings read alike, the source gives them in different places.

System: 'A4' creeping bentgrass
Conditions: for Root Diameter / Root Length / Root Surface Area / Root Volume / Root Viability: end of trial; for Root Viability: TTC method
Excerpt: Mature ‘A4’ creeping bentgrass plugs (4″ diameter) were harvested from field plots and transplanted into 6-inch pots filled with a USGA (United States Golf Association) specification sand mix (fine sand with 10% calcined clay). The bentgrass was maintained at 15 mm and fertilized at 0.2 lb N/1,000 ft^2 at transplanting and then 0.15 lb N/1,000 ft^2 biweekly thereafter. After about 2 months of non-stressed growth with optimum temperature, water, fertilizer, and light, the pots were placed in a controlled environment growth chamber at 95° F. day (12 h)/77° F. night (12 h), light intensity at 400 μmol m^−2 s^−1, 12 h photoperiod, and 65% RH. Water was replaced 5 times weekly at 55% of measured evapotranspiration (ET). […] Four treatments were tested with 4 replications for each treatment. The choline chloride solution at the […] listed below was applied to the canopy at 2 gallons/1,000 ft^2 and the same amount of water was applied to the control (Treatment #1).
The treatments were as follows: • 1. Fertilized control (0.15 lb. Nitrogen (N) per 1,000 ft^2 every 14 days from 28-8-18 with UMAXX® fertilizer (Harrell's LLC, Lakeland, Florida) • 2. Choline at 0.125 oz./1,000 ft^2 biweekly+0.15 lb. N/1,000 ft^2 biweekly • 3. Choline at 0.25 oz./1,000 ft^2 biweekly+0.15 lb. N/1,000 ft^2 biweekly • 4. Choline at 0.5 oz./1,000 ft^2 biweekly+0.15 lb. N/1,000 ft^2 biweekly The rate and source of fertilization for treatments #2, 3, and 4 were the same as treatment #1 (fertilized control).
The stress period of the trial lasted for 8 weeks, and there was a total of 4 treatment applications. The following measurements/data were taken at day 0, 14, 28, 42, and 56: • a. Visual leaf color was rated on a 1-9 scale, with 1 indicating brown color and 9 indicating dark green color. • b. Photochemical efficiency was measured with chlorophyll fluorometer (OS-50II, Opti-Sciences, Inc., Hudson, NH). Three readings were collected from each pot and the average was used for statistical analysis. • c. Leaf chlorophyll content and carotenoids were extracted in acetone and measured with a spectrophotometer after incubation for 72 h. • d. Leaf proline content was determined based on the method of Bates et al. 1973 and as described by Wu et al. 2017. • e. Leaf antioxidant superoxide dismutase (SOD) activity was determined based on the method as described by Zhang et al. 2015. • f. Root viability, root samples were collected at the end of the trial and TTC method was used to measure root viability as described by Zhang et al., 2017. • g. Root growth characteristics (root length, root surface area, root diameter, root length density) were determined using WinRHIZO technology. • h. Root biomass of the whole pot was measured at day 56. For leaf chlorophyll, carotenoids, proline, and superoxide dismutase (SOD) activity, fresh samples were collected every two weeks and frozen with liquid and stored at −80° C. before lab analysis.

[1] = 0.125 oz/1000 ft^2 biweekly, day 0
[2] = 0.125 oz/1000 ft^2 biweekly, day 14
[3] = 0.125 oz/1000 ft^2 biweekly, day 28
[4] = 0.125 oz/1000 ft^2 biweekly, day 42
[5] = 0.125 oz/1000 ft^2 biweekly, day 56
[6] = 0.25 oz/1000 ft^2 biweekly, day 0
[7] = 0.25 oz/1000 ft^2 biweekly, day 14
[8] = 0.25 oz/1000 ft^2 biweekly, day 28
[9] = 0.25 oz/1000 ft^2 biweekly, day 42
[10] = 0.25 oz/1000 ft^2 biweekly, day 56
[11] = 0.5 oz/1000 ft^2 biweekly, day 0
[12] = 0.5 oz/1000 ft^2 biweekly, day 14
[13] = 0.5 oz/1000 ft^2 biweekly, day 28
[14] = 0.5 oz/1000 ft^2 biweekly, day 42
[15] = 0.5 oz/1000 ft^2 biweekly, day 56

Structure (SMILES): C[N+](C)(C)CCO.[Cl-] [Choline, choline chloride]
- Carotenoids [1]: 1.05a mg/g Fresh Weight
- Chlorophyll [1]: 3.04a mg/g Fresh Weight
- Leaf color (1-9, 9 = dark green) [1]: 8.0a
- Photochemical Efficiency (Fv/F^m) [1]: 0.726a
- Proline content [1]: 64.1a μg/g FW
- SOD activity [1]: 909.7a Unit/g FW
- Carotenoids [2]: 0.88b mg/g Fresh Weight
- Chlorophyll [2]: 2.40c mg/g Fresh Weight
- Leaf color (1-9, 9 = dark green) [2]: 7.1ab
- Photochemical Efficiency (Fv/F^m) [2]: 0.659a
- Proline content [2]: 170.7a μg/g FW
- SOD activity [2]: 906.4a Unit/g FW
- Carotenoids [3]: 0.76c mg/g Fresh Weight
- Chlorophyll [3]: 2.16b mg/g Fresh Weight
- Leaf color (1-9, 9 = dark green) [3]: 6.0b
- Photochemical Efficiency (Fv/F^m) [3]: 0.668a
- Proline content [3]: 156.5a μg/g FW
- SOD activity [3]: 865.7ab Unit/g FW
- Carotenoids [4]: 0.69a mg/g Fresh Weight
- Chlorophyll [4]: 1.74ab mg/g Fresh Weight
- Leaf color (1-9, 9 = dark green) [4]: 6.3b
- Photochemical Efficiency (Fv/F^m) [4]: 0.611ab
- Proline content [4]: 156.1ab μg/g FW
- SOD activity [4]: 752.3bc Unit/g FW
- Carotenoids [5]: 0.67b mg/g Fresh Weight
- Chlorophyll [5]: 1.72ab mg/g Fresh Weight
- Leaf color (1-9, 9 = dark green) [5]: 6.0b
- Photochemical Efficiency (Fv/F^m) [5]: 0.596ab
- Proline content [5]: 139.7b μg/g FW
- Root Biomass [5]: 1.269a g/pot
- SOD activity [5]: 721.2bc Unit/g FW
- Root Diameter (0.125 oz/1000 ft^2 biweekly): 0.161b mm
- Root Length (0.125 oz/1000 ft^2 biweekly): 17.7ab cm/cm^3
- Root Surface Area (0.125 oz/1000 ft^2 biweekly): 0.90ab cm^2/cm^3
- Root Volume (0.125 oz/1000 ft^2 biweekly): 3.61ab cm^3/dm^3
- Root Viability (0.125 oz/1000 ft^2 biweekly): 0.78ab A490/g FW
- Carotenoids [6]: 1.03a mg/g Fresh Weight
- Chlorophyll [6]: 2.95a mg/g Fresh Weight
- Leaf color (1-9, 9 = dark green) [6]: 8.0a
- Photochemical Efficiency (Fv/F^m) [6]: 0.726a
- Proline content [6]: 63.1a μg/g FW
- SOD activity [6]: 870.8a Unit/g FW
- Carotenoids [7]: 1.02a mg/g Fresh Weight
- Chlorophyll [7]: 2.76a mg/g Fresh Weight
- Leaf color (1-9, 9 = dark green) [7]: 7.4a
- Photochemical Efficiency (Fv/F^m) [7]: 0.672a
- Proline content [7]: 177.4a μg/g FW
- SOD activity [7]: 930.7a Unit/g FW
- Carotenoids [8]: 0.94a mg/g Fresh Weight
- Chlorophyll [8]: 2.75a mg/g Fresh Weight
- Leaf color (1-9, 9 = dark green) [8]: 6.6a
- Photochemical Efficiency (Fv/F^m) [8]: 0.645a
- Proline content [8]: 162.3a μg/g FW
- SOD activity [8]: 885.1a Unit/g FW
- Carotenoids [9]: 0.84a mg/g Fresh Weight
- Chlorophyll [9]: 2.10ab mg/g Fresh Weight
- Leaf color (1-9, 9 = dark green) [9]: 6.7a
- Photochemical Efficiency (Fv/F^m) [9]: 0.648a
- Proline content [9]: 169.5a μg/g FW
- SOD activity [9]: 872.3a Unit/g FW
- Carotenoids [10]: 0.84a mg/g Fresh Weight
- Chlorophyll [10]: 1.99a mg/g Fresh Weight
- Leaf color (1-9, 9 = dark green) [10]: 6.6a
- Photochemical Efficiency (Fv/F^m) [10]: 0.615a
- Proline content [10]: 267.1a μg/g FW
- Root Biomass [10]: 1.273a g/pot
- SOD activity [10]: 866.5a Unit/g FW
- Root Diameter (0.25 oz/1000 ft^2 biweekly): 0.170ab mm
- Root Length (0.25 oz/1000 ft^2 biweekly): 18.4a cm/cm^3
- Root Surface Area (0.25 oz/1000 ft^2 biweekly): 0.98a cm^2/cm^3
- Root Volume (0.25 oz/1000 ft^2 biweekly): 4.18a cm^3/dm^3
- Root Viability (0.25 oz/1000 ft^2 biweekly): 1.28a A490/g FW
- Carotenoids [11]: 1.07a mg/g Fresh Weight
- Chlorophyll [11]: 3.07a mg/g Fresh Weight
- Leaf color (1-9, 9 = dark green) [11]: 8.0a
- Photochemical Efficiency (Fv/F^m) [11]: 0.718a
- Proline content [11]: 53.5a μg/g FW
- SOD activity [11]: 878.3a Unit/g FW
- Carotenoids [12]: 0.98ab mg/g Fresh Weight
- Chlorophyll [12]: 2.67ab mg/g Fresh Weight
- Leaf color (1-9, 9 = dark green) [12]: 7.4a
- Photochemical Efficiency (Fv/F^m) [12]: 0.690a
- Proline content [12]: 180.0a μg/g FW
- SOD activity [12]: 911.1a Unit/g FW
- Carotenoids [13]: 0.91ab mg/g Fresh Weight
- Chlorophyll [13]: 2.54ab mg/g Fresh Weight
- Leaf color (1-9, 9 = dark green) [13]: 6.8a
- Photochemical Efficiency (Fv/F^m) [13]: 0.661a
- Proline content [13]: 167.1a μg/g FW
- SOD activity [13]: 900.7a Unit/g FW
- Carotenoids [14]: 0.84a mg/g Fresh Weight
- Chlorophyll [14]: 2.18a mg/g Fresh Weight
- Leaf color (1-9, 9 = dark green) [14]: 6.9a
- Photochemical Efficiency (Fv/F^m) [14]: 0.659a
- Proline content [14]: 171.8a μg/g FW
- SOD activity [14]: 836.4ab Unit/g FW
- Carotenoids [15]: 0.83a mg/g Fresh Weight
- Chlorophyll [15]: 2.01a mg/g Fresh Weight
- Leaf color (1-9, 9 = dark green) [15]: 6.9a
- Photochemical Efficiency (Fv/F^m) [15]: 0.610a
- Proline content [15]: 278.0a μg/g FW
- Root Biomass [15]: 1.270a g/pot
- SOD activity [15]: 815.7ab Unit/g FW
- Root Diameter (0.5 oz/1000 ft^2 biweekly): 0.176a mm
- Root Length (0.5 oz/1000 ft^2 biweekly): 18.8a cm/cm^3
- Root Surface Area (0.5 oz/1000 ft^2 biweekly): 0.99a cm^2/cm^3
- Root Volume (0.5 oz/1000 ft^2 biweekly): 4.15a cm^3/dm^3
- Root Viability (0.5 oz/1000 ft^2 biweekly): 1.10a A490/g FW
